Test results reported in patent publication US12692261B2, “Substituted heterocyclic compounds and therapeutic uses thereof” (Bayer Aktiengesellschaft, priority 2020, dated 2026).

What was measured:
[1] = biological target: T1, full-length human CSNK1D (Homo sapiens, UniProt P48730); experiment: CSNK1D Assay (ADP-Glo, 1 μM ATP); format: biochemical; details: Table 3, read-out: CSNK1D IC50 [mol/l] (median)
T1 construct: N-terminal Glutathion-S-Transferase (GST) and full-length human CSNK1D; purchased Life Technologies PV3665; host or cells: baculovirus infected insect cells
Experimental: CSNK1D-inhibitory activity of compounds of the present invention in presence of 1 μM adenosine-tri-phosphate (ATP) was quantified employing the CSNK1 D assay as described in the following paragraphs. In essence, the enzyme activity is measured by quantification of the adenosine-di-phosphate (ADP), which is generated as a co-product of the enzyme reaction, via the “ADP-Glo™ Kinase Assay” kit from the company Promega. This detection system works as follows: In a first step the ATP not consumed in the kinase reaction is quantitatively converted to cAMP employing an adenylate cyclase (“ADP-Glo-reagent”), then the adenylate cyclase is stopped and the ADP generated in the kinase reaction converted to ATP which generates in a luciferase-based reaction a glow-luminescence signal (“Kinase Detection Reagent”).
Recombinant fusion protein of N-terminal Glutathion-S-Transferase (GST) and full-length human CSNK1D, expressed by baculovirus infected insect cells and purified via Glutathion affinity chromatography, was purchased from Life Technologies (product no. PV3665) and used as enzyme. As substrate for the kinase reaction the biotinylated peptide Btn-Ahx-[…] (C-terminus in amide form) was used which can be purchased e.g. from the company Biosyntan (Berlin-Buch, Germany).
For the assay 50 nl of a 100 fold concentrated solution of the test compound in DMSO was pipetted into a white 1536-well microtiter plate (Greiner Bio-One, Frickenhausen, Germany), 2 μL of a solution of CSNK1D in aqueous assay buffer [50 mM HEPES pH 7.5, 10% (v/v) glycerol, 10 mM MgCl2, 50 mM NaCl, 1 mM dithiothreitol, 0.01% (w/v) bovine serum albumin, 0.01% (v/v) Triton X-100] were added and the mixture was incubated for 15 min at 22° C. to allow pre-binding of the test compounds to the enzyme before the start of the kinase reaction. […] The concentration of CSNK1D was adjusted depending of the activity of the enzyme lot and was chosen appropriate to have the assay in the linear range, a typical concentration is about 0.5 ng/μL. The reaction was stopped by the addition of 2.5 μL of “ADP-Glo-reagent” (1:1.5 fold diluted with water) and the resulting mixture was incubated at 22° C. for 1 h to convert the ATP not consumed in the kinase reaction completely […]. Subsequently 2.5 μL of the “kinase detection reagent” (1.2 fold more concentrated than recommended by the producer) were added, the resulting mixture was incubated at 22° C. for 1 h and then the luminescence measured with a suitable measurement instrument (e.g. Viewlux™ from Perkin-Elmer). The amount of emitted light was taken as a measure for the amount of ADP generated and thereby for the activity of the CSNK1D.

[2] = biological target: T2, full-length human CSNK1A1 (Homo sapiens, UniProt P48729); experiment: CSNK1A1 High ATP Assay (ADP-Glo, 1 mM ATP); format: biochemical; details: Table 3, read-out: CSNK1A1 high ATP assay IC50 [mol/l] (median);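 further: 30 min kinase reaction at 22 °C with 100 µM peptide substrate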
T2 construct: N-terminal Glutathion-S-Transferase (GST) and full-length human CSNK1A1; purchased Life Technologies PV4174; host or cells: baculovirus infected insect cells
Experimental: CSNK1A1-inhibitory activity of compounds of the present invention in presence of 1 mM adenosine-tri-phosphate (ATP) was quantified employing the CSNK1A1-high-ATP-assay as described in the following paragraphs. In essence, the enzyme activity is measured by quantification of the adenosine-di-phosphate (ADP), which is generated as a co-product of the enzyme reaction, via the “ADP-Glo™ Kinase Assay” kit from the company Promega. This detection system works as follows: In a first step the ATP not consumed in the kinase reaction is quantitatively converted to cAMP employing an adenylate cyclase (“ADP-Glo-reagent”), then the adenylate cyclase is stopped and the ADP generated in the kinase reaction converted to ATP which generates in a luciferase-based reaction a glow-luminescence signal (“Kinase Detection Reagent”).
Recombinant fusion protein of N-terminal Glutathion-S-Transferase (GST) and full-length human CSNK1A1, expressed by baculovirus infected insect cells and purified via Glutathion affinity chromatography, was purchased from Life Technologies (product no. PV4174) and used as enzyme. As substrate for the kinase reaction the biotinylated peptide biotin-Ahx-KRRRAL-pS-VASLPGL (C-terminus in amide form) was used which can be purchased e.g. from the company Biosyntan (Berlin-Buch, Germany).
For the assay 50 nl of a 100 fold concentrated solution of the test compound in DMSO was pipetted into a white low volume 384-well microtiter plate (Greiner Bio-One, Frickenhausen, Germany), 2 μL of a solution of CSNK1A1 in aqueous assay buffer [50 mM HEPES pH 7.5, 10% (v/v) glycerol, 10 mM MgCl2, 50 mM NaCl, 1 mM dithiothreitol, 0.01% (w/v) bovine serum albumin, 0.01% (v/v) Triton X-100] were added and the mixture was incubated for 15 min at 22° C. to allow pre-binding of the test compounds to the enzyme before the start of the kinase reaction. […] The concentration of CSNK1A1 was adjusted depending of the activity of the enzyme lot and was chosen appropriate to have the assay in the linear range, a typical concentration is about 0.4 ng/μL. The reaction was stopped by the addition of 2.5 μL of “ADP-Glo-reagent” (1:1.5 fold diluted with water) and the resulting mixture was incubated at 22° C. for 1 h to convert the ATP not consumed in the kinase reaction completely […]. Subsequently 2.5 μL of the “kinase detection reagent” (1.2 fold more concentrated than recommended by the producer) were added, the resulting mixture was incubated at 22° C. for 1 h and then the luminescence measured with a suitable measurement instrument (e.g. Viewlux™ from Perkin-Elmer). The amount of emitted light was taken as a measure for the amount of ADP generated and thereby for the activity of the CSNK1A1.

T1 sequence (P48730 whole entry): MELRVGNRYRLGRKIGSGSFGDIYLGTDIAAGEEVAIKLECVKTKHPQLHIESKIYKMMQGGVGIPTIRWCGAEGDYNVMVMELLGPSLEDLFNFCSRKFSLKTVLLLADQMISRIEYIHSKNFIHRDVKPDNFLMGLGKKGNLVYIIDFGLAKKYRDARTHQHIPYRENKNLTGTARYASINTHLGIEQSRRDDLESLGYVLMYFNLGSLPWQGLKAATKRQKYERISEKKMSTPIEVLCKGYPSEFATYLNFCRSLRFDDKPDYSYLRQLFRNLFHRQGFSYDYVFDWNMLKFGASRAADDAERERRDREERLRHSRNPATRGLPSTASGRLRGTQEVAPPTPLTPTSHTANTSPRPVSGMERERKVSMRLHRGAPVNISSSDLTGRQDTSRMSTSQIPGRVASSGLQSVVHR
T2 sequence (P48729 whole entry): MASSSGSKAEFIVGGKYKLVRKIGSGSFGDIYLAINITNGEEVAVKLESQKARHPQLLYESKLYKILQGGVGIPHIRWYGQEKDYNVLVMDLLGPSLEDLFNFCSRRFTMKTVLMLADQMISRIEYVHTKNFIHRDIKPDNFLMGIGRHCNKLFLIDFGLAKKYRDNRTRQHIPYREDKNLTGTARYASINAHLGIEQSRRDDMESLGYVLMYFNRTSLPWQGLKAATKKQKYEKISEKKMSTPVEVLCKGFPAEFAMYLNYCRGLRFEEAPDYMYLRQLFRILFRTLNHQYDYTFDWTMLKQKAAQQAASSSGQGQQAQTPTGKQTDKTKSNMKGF

| SMILES | IC50 [1] | IC50 [2] |
| --- | --- | --- |
| COc1cc(F)nc2c(-c3ccccn3)c(-c3ccnc(NC(=O)C(CC(F)F)c4ccc(F)cc4)c3)[nH]c12 (racemic) [Example 39, (rac)-4,4-difluoro-N-{4-[5-fluoro-7-methoxy-3-(pyridin-2-yl)-1H-pyrrolo[3,2-b]pyridin-2-yl]pyridin-2-yl}-2-(4-fluorophenyl)butanamide] | 40.2 nM | 19 nM |
| O=C(Nc1cc(-c2[nH]c3cccnc3c2-c2ccccc2)ccn1)C(CC(F)F)c1ccc(F)cc1 (single isomer, unassigned; (-)) [Example 23, (−)-4,4-difluoro-2-(4-fluorophenyl)-N-[4-(3-phenyl-1H-pyrrolo[3,2-b]pyridin-2-yl)pyridin-2-yl]butanamide] | 12.5 nM | 3740 nM |
| CC(C)(O)c1cc(F)nc2c(-c3ccccn3)c(-c3ccnc(NC(=O)C(CC(F)F)c4ccc(F)cc4)c3)[nH]c12 (racemic) [Example 98, (2RS)-4,4-difluoro-N-{4-[5-fluoro-7-(2-hydroxypropan-2-yl)-3-(pyridin-2-yl)-1H-pyrrolo[3,2-b]pyridin-2-yl]pyridin-2-yl}-2-(4-fluorophenyl)butanamide] | 6.84 nM | 7.36 nM |
| O=C(Nc1cc(-c2[nH]c3c(N4CCNCC4)ccnc3c2-c2ccccn2)ccn1)C(CC(F)F)c1ccc(F)cc1 (single isomer, unassigned) [Example 93, (2R or S)-4,4-difluoro-2-(4-fluorophenyl)-N-{4-[7-(piperazin-1-yl)-3-(pyridin-2-yl)-1H-pyrrolo[3,2-b]pyridin-2-yl]pyridin-2-yl}butanamide] | 17.3 nM | 5.35 nM |
| O=C(Nc1cc(-c2[nH]c3c(OCC4CC4)ncnc3c2-c2ccccn2)ccn1)C(CC(F)F)c1ccc(F)cc1 (single isomer, unassigned) [Example 129, (2R or S)—N-{4-[4-(cyclopropylmethoxy)-7-(pyridin-2-yl)-5H-pyrrolo[3,2-d]pyrimidin-6-yl]pyridin-2-yl}-4,4-difluoro-2-(4-fluorophenyl)butanamide] | 5.94 nM | 10.3 nM |
| Cc1cnc2c(-c3ccccn3)c(-c3ccnc(NC(=O)C(CC(F)F)c4ccc(F)cc4)c3)[nH]c2c1 (single isomer, unassigned) [Example 8, 4,4-difluoro-2-(4-fluorophenyl)-N-{4-[6-methyl-3-(pyridin-2-yl)-1H-pyrrolo[3,2-b]pyridin-2-yl]pyridin-2-yl}butanamide] | 4.01 nM | 8.57 nM |
| O=C(Nc1cc(-c2[nH]c3cc(F)cnc3c2-c2ccccc2)ccn1)C(CC(F)F)c1ccc(F)cc1 (single isomer, unassigned; (+)) [Example 21, (+)-4,4-difluoro-2-(4-fluorophenyl)-N-[4-(6-fluoro-3-phenyl-1H-pyrrolo[3,2-b]pyridin-2-yl)pyridin-2-yl]butanamide] | 3.59 nM | 229 nM |
| COc1cnc2c(-c3ccccn3)c(-c3ccnc(NC(=O)C(CC(F)F)c4ccc(F)cc4)c3)[nH]c2n1 (single isomer, unassigned) [Example 102, 4,4-difluoro-2-(4-fluorophenyl)-N-{4-[3-methoxy-7-(pyridin-2-yl)-5H-pyrrolo[2,3-b]pyrazin-6-yl]pyridin-2-yl}butanamide] | 75 nM | 31.1 nM |
| O=C(Nc1cc(-c2[nH]c3nccnc3c2-c2ccccn2)ccn1)[C@@H](CC(F)F)c1ccc(F)cc1 (single isomer, unassigned) [Example 32] | 4.55 nM | 1.37 nM |
| O=C(Nc1cc(-c2[nH]c3cccnc3c2-c2cccc(F)n2)ccn1)C(CC(F)F)c1ccc(F)cc1 (single isomer, unassigned; (+)) [Example 27, (+)-4,4-difluoro-2-(4-fluorophenyl)-N-{4-[3-(6-fluoropyridin-2-yl)-1H-pyrrolo[3,2-b]pyridin-2-yl]pyridin-2-yl}butanamide] | 4.05 nM | 1.55 nM |
| O=C(Nc1cc(-c2[nH]c3c(OC[C@H]4COCCO4)cc(F)nc3c2-c2ccccn2)ccn1)C(CC(F)F)c1ccc(F)cc1 (mixture of isomers) [Example 50, (2RS)—N-{4-[7-{[(2R)-1,4-dioxan-2-yl]methoxy}-5-fluoro-3-(pyridin-2-yl)-1H-pyrrolo[3,2-b]pyridin-2-yl]pyridin-2-yl}-4,4-difluoro-2-(4-fluorophenyl)butanamide] | 9.03 nM | 9.34 nM |
| O=C(Nc1cc(-c2[nH]c3c(OCC(F)(F)F)ncnc3c2-c2ccccn2)ccn1)C(CC(F)(F)F)c1ccc(F)cc1 (single isomer, unassigned) [Example 127, (2R or S)-4,4,4-trifluoro-2-(4-fluorophenyl)-N-{4-[7-(pyridin-2-yl)-4-(2,2,2-trifluoroethoxy)-5H-pyrrolo[3,2-d]pyrimidin-6-yl]pyridin-2-yl}butanamide] | 88.1 nM | > 20000 nM |
| O=C(Nc1cc(-c2[nH]c3cccnc3c2-c2ccccc2)ccn1)C(CC(F)F)c1ccc(F)cc1 (racemic) [Example 22, 4,4-difluoro-2-(4-fluorophenyl)-N-[4-(3-phenyl-1H-pyrrolo[3,2-b]pyridin-2-yl)pyridin-2-yl]butanamide] | 3.18 nM | 90.4 nM |
| Cc1cc(F)nc2c(-c3ccccn3)c(-c3ccnc(NC(=O)C(CC(F)F)c4ccc(F)cc4)c3)[nH]c12 (single isomer, unassigned; (-)) [Example 38, (−)-4,4-difluoro-N-{4-[5-fluoro-7-methyl-3-(pyridin-2-yl)-1H-pyrrolo[3,2-b]pyridin-2-yl]pyridin-2-yl}-2-(4-fluorophenyl)butanamide] | 3.8 nM | 2.26 nM |
| Cc1cc(F)nc2c(-c3ccccn3)c(-c3ccnc(NC(=O)C(CC(F)F)c4ccc(F)cc4)c3)[nH]c12 (racemic) [Example 36, (rac)-4,4-difluoro-N-{4-[5-fluoro-7-methyl-3-(pyridin-2-yl)-1H-pyrrolo[3,2-b]pyridin-2-yl]pyridin-2-yl}-2-(4-fluorophenyl)butanamide] | 41.9 nM | 21.4 nM |
| O=C(Nc1cc(-c2[nH]c3c(OCC(F)(F)F)ncnc3c2-c2ccccn2)ccn1)C(CC(F)F)c1ccc(F)cc1 (single isomer, unassigned) [Example 124, (2R or S)-4,4-difluoro-2-(4-fluorophenyl)-N-{4-[7-(pyridin-2-yl)-4-(2,2,2-trifluoroethoxy)-5H-pyrrolo[3,2-d]pyrimidin-6-yl]pyridin-2-yl}butanamide] | 46.6 nM | 2180 nM |
